Measurements published in paper PMC9681850, “Structural basis of synthetic agonist activation of the nuclear receptor REV-ERB” (Nature Communications, 2022).
Where “and” joins values, the source holds several entries; their conditions need not be identical. Identical values can stand only once.

Legend:
[1] = molecular target: T1, full length human REV-ERBα (Homo sapiens, UniProt P20393); assay: cell-based two-hybrid luciferase reporter assay (REV-ERBα-FL/GAL4-DBD + NCoR-Vp16, HEK UAS-luc cells); details: HEK293 UAS-luc cells
T1 construct: expressed in transfected cells; host or cells: HEK293 cells with stably integrated GAL4-UAS luciferase reporter

HepG2 cells = assay: cell viability by crystal violet staining; format: cell-based, human; details: for cell viability (Fig 2a source data): crystal violet, normalized to DMSO, single replicates
Method: (§1) Cellular viability was tested in two cell types, human hepatocarcinoma HepG2 cells and proliferating C2C12 mouse myoblast cells.
(§2) Data are presented as mean ± SEM. Source data are available as a Source Data file.
(§3) The human hepatocellular carcinoma cell line, HepG2 cells (ATCC HB-8065), were cultured in 10% FBS 1% L-Glu MEM at 37 °C in a humidified atmosphere of 5% CO2. Prior to RNA extraction cells were treated with either DMSO or REV-ERB agonist for 24 h. The C2C12 proliferating mouse myoblast cells (ATCC, CRL-1772) were cultured in 10% FBS DMEM at 37 °C in a humidified atmosphere of 5% CO2. Prior to RNA extraction cells were treated with either DMSO or REV-ERB agonist for 24 h. […]
(§4) […] Media was removed, and cells were incubated with 0.5% crystal violet solution for 20 min at room temperature with mild agitation. Cells were washed four times with tap water before being air drying overnight. Cells were incubated in methanol for 20 min with mild agitation. Absorbance was read at 570 nm, and readings were normalized to vehicle (DMSO) treated cells.

[2] = tested on: proliferating C2C12 mouse myoblast cells; assay: cell viability by crystal violet staining; format: cell-based; details: for cell viability (Fig. 2b source data): crystal violet, normalized to DMSO, single replicates; for reduction in cellular viability: proliferating C2C12 cells
Method: as §1, §2, §3, §4

[3] = tested on: Bmal1 expression in liver; assay: Bmal1 expression in liver after i.p. administration; format: in vivo, C57Bl/6 J mice; details: mice, 50 mg/kg i.p., 12 h post administration, single animals
CAR = CAR (Homo sapiens, UniProt Q14994); assay: CAR assay; format: cell-based
AR = AR (Homo sapiens, UniProt P10275); assay: Gal4-UAS reporter assay for nuclear receptor specificity; format: cell-based; details: Gal4 DBD-NR, HEK293 cells, 10 µM
Text: (§5) We assessed the specificity of STL1267 using both in house nuclear receptor Gal4-NR reporter assays and the NIMH Psychoactive Drug Screening Program (PDSP) assays. We assessed the specificity of STL1267 in the PDSP’s radioligand displacement assays, screening for binding to off-target GPCRs, ion channels, transporters, and other drug targets (Table S1). Of the 43 targets assessed in this panel, we observed no detectable binding in 41 of them. […] Additional assessment in serotonin transporter and kappa opioid receptor activity in a functional assay may be warranted to determine absolute specificity.
(§6) Receptor RLBA Ki Receptor activity
(§7) Suppl ementary Tabl e 1. Speci fi ci ty of STL1267. […]
(§8) HEK293 cells transfected with Gal4-UAS l uc i f eras e and […]

ERα = ERα (Homo sapiens, UniProt P03372); assay: as above; format: cell-based; details: Gal4 DBD-NR, HEK293 cells, 10 µM; ERa
Text: as §5, §6, §7, §8

ERβ = ERβ (Homo sapiens, UniProt Q92731); assay: as above; format: cell-based; details: Gal4 DBD-NR, HEK293 cells, 10 µM; ERb
Text: as §5, §6, §7, §8

LXRα = LXRα (Homo sapiens, UniProt Q13133); assay: as above; format: cell-based; details: Gal4 DBD-NR, HEK293 cells, 10 µM; LXRa
Text: as §5, §6, §7, §8

MR = MR (Homo sapiens, UniProt P08235); assay: as above; format: cell-based; details: Gal4 DBD-NR, HEK293 cells, 10 µM
Text: as §5, §6, §7, §8

PR = PR (Homo sapiens, UniProt P06401); assay: as above; format: cell-based; details: Gal4 DBD-NR, HEK293 cells, 10 µM
Text: as §5, §6, §7, §8

RARα = RARα (Homo sapiens, UniProt P10276); assay: as above; format: cell-based; details: Gal4 DBD-NR, HEK293 cells, 10 µM; RARa
Text: as §5, §6, §7, §8

TRα = molecular target: T2, TRα (Homo sapiens, UniProt P10827); assay: as above; format: cell-based; details: Gal4 DBD-NR, HEK293 cells, 10 µM; TRa
T2 construct: purchased NIMH Psychoactive Drug Screening Program (PDSP); in-house Gal4-NR LBD cotransfection assays
Text: as §5, §6, §7, §8

VDR = VDR (Homo sapiens, UniProt P11473); assay: as above; format: cell-based; details: Gal4 DBD-NR, HEK293 cells, 10 µM
Text: as §5, §6, §7, §8

REV-ERBα LBD = molecular target: T3, REV-ERBα LBD (Homo sapiens, UniProt P20393); assay: scintillation proximity radioligand binding assay with 3H-STL1267; design: made in house; details: SPA
T3 sequence (P20393 284-614 limits assumed): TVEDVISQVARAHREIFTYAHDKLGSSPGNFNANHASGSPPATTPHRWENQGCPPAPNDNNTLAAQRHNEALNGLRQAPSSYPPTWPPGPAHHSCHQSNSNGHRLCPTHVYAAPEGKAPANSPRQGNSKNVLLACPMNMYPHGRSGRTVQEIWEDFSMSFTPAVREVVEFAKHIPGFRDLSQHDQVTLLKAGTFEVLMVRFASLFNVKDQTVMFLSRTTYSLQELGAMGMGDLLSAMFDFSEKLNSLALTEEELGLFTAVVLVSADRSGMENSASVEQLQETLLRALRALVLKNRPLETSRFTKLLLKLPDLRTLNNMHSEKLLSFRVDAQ

T1 sequence (P20393 whole entry, the tested form may be a part): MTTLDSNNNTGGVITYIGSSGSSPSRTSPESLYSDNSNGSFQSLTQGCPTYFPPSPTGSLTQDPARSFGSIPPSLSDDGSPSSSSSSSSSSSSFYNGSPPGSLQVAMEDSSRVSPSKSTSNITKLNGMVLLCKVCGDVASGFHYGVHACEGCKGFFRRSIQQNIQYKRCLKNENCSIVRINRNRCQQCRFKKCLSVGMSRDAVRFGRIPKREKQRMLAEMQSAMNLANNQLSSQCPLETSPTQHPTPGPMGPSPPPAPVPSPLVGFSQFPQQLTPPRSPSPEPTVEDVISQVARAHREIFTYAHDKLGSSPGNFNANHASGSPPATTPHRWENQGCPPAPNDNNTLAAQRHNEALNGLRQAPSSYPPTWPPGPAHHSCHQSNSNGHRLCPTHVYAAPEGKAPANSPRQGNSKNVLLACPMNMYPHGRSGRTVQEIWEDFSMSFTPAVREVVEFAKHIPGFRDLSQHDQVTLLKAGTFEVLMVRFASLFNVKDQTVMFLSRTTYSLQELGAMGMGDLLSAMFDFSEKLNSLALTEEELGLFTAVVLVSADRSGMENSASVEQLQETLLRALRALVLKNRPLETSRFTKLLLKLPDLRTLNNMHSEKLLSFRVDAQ
T1 sequence (O75376 whole entry partner, the tested form may be a part): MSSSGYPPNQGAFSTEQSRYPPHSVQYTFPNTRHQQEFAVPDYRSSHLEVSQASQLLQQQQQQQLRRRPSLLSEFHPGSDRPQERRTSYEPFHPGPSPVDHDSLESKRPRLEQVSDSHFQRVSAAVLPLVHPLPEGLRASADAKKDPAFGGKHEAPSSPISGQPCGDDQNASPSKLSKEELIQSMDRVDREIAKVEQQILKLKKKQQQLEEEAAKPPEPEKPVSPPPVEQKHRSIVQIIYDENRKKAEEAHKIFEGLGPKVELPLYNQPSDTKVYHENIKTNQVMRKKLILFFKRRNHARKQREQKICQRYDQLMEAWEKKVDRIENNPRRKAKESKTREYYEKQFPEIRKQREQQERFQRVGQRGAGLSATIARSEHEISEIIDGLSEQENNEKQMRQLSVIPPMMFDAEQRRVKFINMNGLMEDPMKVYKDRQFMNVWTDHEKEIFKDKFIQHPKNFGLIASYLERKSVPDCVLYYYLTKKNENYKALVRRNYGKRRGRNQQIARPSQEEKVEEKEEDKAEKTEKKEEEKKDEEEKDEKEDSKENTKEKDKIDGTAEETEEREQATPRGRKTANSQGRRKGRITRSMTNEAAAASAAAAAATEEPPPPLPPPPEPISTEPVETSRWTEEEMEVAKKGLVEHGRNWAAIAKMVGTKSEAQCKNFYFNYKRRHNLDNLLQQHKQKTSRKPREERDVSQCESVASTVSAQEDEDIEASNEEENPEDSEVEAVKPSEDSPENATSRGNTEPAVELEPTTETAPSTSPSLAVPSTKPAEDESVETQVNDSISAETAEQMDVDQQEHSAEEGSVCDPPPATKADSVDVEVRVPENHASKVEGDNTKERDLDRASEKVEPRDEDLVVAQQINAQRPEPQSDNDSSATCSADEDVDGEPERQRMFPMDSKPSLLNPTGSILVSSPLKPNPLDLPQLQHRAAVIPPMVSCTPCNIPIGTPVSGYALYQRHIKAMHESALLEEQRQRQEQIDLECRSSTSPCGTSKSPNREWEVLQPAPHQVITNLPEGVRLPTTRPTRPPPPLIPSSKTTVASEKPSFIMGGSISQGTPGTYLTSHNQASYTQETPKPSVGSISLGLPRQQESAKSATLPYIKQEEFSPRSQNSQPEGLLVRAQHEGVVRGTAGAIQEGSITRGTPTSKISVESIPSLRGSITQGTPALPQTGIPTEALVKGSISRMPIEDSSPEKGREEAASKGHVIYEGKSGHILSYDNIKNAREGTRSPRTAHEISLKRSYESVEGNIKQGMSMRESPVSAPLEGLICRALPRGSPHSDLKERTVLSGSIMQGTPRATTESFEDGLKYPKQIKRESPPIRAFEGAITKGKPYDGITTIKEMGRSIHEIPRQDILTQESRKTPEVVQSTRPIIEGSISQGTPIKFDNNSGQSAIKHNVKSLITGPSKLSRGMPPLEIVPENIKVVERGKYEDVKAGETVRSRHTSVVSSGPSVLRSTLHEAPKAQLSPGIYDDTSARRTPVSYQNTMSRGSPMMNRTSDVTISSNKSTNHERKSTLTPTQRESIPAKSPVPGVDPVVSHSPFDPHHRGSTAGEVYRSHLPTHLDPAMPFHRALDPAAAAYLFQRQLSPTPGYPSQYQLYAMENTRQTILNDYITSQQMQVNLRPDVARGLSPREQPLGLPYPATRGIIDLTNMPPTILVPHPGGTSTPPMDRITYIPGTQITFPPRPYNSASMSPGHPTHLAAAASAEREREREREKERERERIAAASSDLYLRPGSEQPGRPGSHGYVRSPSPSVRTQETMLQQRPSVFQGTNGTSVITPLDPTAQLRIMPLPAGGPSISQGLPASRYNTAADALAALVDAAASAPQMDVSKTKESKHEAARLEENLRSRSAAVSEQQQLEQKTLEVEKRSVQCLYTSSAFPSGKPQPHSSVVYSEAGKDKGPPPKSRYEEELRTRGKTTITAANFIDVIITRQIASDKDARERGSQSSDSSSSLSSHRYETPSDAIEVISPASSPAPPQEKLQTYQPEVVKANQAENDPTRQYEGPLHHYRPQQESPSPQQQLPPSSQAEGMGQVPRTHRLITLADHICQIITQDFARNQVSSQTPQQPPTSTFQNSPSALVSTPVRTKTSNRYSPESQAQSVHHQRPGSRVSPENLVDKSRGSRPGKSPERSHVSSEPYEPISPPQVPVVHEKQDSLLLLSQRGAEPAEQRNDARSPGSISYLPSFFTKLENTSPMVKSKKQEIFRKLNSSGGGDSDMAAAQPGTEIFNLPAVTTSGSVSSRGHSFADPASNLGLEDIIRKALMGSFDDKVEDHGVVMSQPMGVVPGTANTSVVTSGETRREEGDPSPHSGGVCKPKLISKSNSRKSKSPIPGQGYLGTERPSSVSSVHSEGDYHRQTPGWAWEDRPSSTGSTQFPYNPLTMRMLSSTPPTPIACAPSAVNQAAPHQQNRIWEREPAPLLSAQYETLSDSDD
Chain of PR (P06401 679-933 limits assumed): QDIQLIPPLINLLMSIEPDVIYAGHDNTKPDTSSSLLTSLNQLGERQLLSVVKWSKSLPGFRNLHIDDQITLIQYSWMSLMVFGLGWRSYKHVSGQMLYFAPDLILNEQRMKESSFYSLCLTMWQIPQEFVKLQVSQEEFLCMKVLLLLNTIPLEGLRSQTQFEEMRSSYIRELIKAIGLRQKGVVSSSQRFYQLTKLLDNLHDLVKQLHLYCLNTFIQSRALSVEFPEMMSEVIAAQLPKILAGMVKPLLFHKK
Chain of ERβ (Q92731 264-498 limits assumed): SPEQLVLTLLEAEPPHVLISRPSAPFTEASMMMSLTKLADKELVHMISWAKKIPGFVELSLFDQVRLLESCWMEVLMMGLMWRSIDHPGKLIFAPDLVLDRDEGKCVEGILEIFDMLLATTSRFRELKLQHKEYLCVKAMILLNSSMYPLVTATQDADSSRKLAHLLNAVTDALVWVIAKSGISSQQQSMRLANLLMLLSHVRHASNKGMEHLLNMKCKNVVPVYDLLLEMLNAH
Chain of RARα (P10276 183-417 limits assumed): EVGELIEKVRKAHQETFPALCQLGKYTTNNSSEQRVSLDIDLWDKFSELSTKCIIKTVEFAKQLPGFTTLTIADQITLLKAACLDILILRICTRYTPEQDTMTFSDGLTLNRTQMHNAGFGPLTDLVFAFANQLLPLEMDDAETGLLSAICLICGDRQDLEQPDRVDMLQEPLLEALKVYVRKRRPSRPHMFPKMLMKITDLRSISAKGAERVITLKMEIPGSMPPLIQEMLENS
Chain of VDR (P11473 127-427 limits assumed): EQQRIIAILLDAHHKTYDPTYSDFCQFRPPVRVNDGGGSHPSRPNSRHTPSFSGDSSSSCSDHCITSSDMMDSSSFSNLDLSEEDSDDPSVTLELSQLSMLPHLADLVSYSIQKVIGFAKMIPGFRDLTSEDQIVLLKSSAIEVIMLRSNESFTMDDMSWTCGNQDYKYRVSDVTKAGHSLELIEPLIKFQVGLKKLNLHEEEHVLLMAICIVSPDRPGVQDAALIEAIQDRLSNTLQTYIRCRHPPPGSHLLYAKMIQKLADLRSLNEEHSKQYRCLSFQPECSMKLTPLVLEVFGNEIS
Chain of CAR (Q14994 whole entry, the tested form may be a part): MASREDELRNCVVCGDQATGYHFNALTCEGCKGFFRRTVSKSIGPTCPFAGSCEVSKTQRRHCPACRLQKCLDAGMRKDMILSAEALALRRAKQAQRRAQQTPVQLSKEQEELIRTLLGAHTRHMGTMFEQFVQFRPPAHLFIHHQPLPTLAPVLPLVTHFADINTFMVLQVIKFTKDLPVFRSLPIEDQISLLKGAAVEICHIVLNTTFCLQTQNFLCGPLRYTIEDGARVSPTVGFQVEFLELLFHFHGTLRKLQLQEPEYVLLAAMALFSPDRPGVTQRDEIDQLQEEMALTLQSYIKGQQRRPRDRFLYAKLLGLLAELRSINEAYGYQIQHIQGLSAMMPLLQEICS
Chain of LXRα (Q13133 209-447 limits assumed): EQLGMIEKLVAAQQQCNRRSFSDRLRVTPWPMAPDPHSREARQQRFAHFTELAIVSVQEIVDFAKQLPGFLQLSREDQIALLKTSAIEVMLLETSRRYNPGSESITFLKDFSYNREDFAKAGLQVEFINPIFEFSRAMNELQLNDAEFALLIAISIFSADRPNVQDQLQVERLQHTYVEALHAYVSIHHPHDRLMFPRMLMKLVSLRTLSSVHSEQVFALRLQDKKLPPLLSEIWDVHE
Chain of AR (P10275 669-920 limits assumed): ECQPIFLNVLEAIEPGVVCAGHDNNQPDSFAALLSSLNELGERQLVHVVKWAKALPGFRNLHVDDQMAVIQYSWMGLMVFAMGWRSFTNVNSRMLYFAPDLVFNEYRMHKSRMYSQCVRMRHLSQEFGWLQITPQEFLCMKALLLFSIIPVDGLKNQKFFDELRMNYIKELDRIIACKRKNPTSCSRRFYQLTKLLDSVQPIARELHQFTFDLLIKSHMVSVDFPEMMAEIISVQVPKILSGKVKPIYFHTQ

Clc1nnc2ccc(Oc3ccccc3-c3ccccc3)nn12 [STL1267]
maximal efficacy for recruitment of NCoR-VP16 vs. SR9009 [1]: ~ 8 fold | EC50 ([1]; 24 h, read-out: EC50, recruitment of NCoR-Vp16): 1800 nM | cell viability (Fig 2a source data) (HepG2 cells; HepG2, 1uM): 100.259 and 103.289 and 114.098 and 100.562 and 101.976 and 107.785 and 108.29 and 110.916 | cell viability (Fig 2a source data) (HepG2 cells; HepG2, 2uM): 94.905 and 99.6528 and 117.735 and 107.532 and 113.391 and 106.219 and 106.421 and 103.794 | cell viability (Fig 2a source data) (HepG2 cells; HepG2, 5uM): 93.8443 and 82.581 and 107.936 and 102.38 and 83.3891 and 98.2385 and 86.8237 and 96.4202 | cell viability (Fig 2a source data) (HepG2 cells; HepG2, 10uM): 88.9955 and 75.7624 and 90.8643 and 100.208 and 77.7322 and 91.3189 and 89.0965 and 88.0359 | cell viability (Fig 2a source data) (HepG2 cells; HepG2, 20uM): 83.6922 and 74.4997 and 94.7535 and 87.2782 and 90.0057 and 93.8948 and 95.4101 and 87.8338 | effect on cell viability (HepG2 cells; HepG2 cells, up to the maximum dose examined (20 μM)): no adverse effects on cell viability | cell viability (Fig. 2b source data) ([2]; C2C12, 1 uM): 92.0631 and 77.3068 and 87.5705 and 94.4131 and 98.2145 and 106.232 and 102.707 | cell viability (Fig. 2b source data) ([2]; C2C12, 2 uM): 85.9463 and 90.0242 and 93.8256 and 90.5771 and 97.5579 and 103.433 and 103.26 and 102.949 | cell viability (Fig. 2b source data) ([2]; C2C12, 5 uM): 92.9616 and 90.6808 and 91.0609 and 85.0824 and 101.498 and 105.679 and 104.435 and 94.6204 | cell viability (Fig. 2b source data) ([2]; C2C12, 10 uM): 88.9874 and 85.3588 and 77.2722 and 82.9397 and 90.0242 and 92.8925 and 94.5859 and 92.7197 | cell viability (Fig. 2b source data) ([2]; C2C12, 20 uM): 77.9634 and 78.8964 and 75.3024 and 82.4905 and 83.4236 and 81.9721 and 84.5985 and 90.5771 | reduction in cellular viability ([2]; 10 μM): ~ 10% | reduction in cellular viability ([2]; 20 μM): ~ 20% | Bmal1 expression in liver [3]: effectively suppressed Bmal1 expression and 0.9475 and 0.6115 and 0.4288 and 0.62 and 0.8061 and 0.4099 | activity at CAR (CAR): did not have activity | activity (AR): did not detect activity | activity (ERα): did not detect activity | activity (ERβ): did not detect activity | activity (LXRα): did not detect activity | activity (MR): did not detect activity | activity (PR): did not detect activity | activity (RARα): did not detect activity | activity (TRα): did not detect activity | activity (VDR): did not detect activity | Ki (REV-ERBα LBD; REV-ERBα LBD, read-out: Ki, displacement of 3H-STL1267): 160 nM | potency relative to SR9009 in the radioligand binding assay (REV-ERBα LBD): 4.3 fold
